IC50 and CC50 data for eleven compounds are collected here from patent publication US6583171B1, “Antineoplastic agents” (Welichem Biotech Inc., priority 1996, dated 2003).

One data set relates to Human Lung Cancer (H460). Put plainly: Anticancer activity of xenorxide derivatives (Example 8), H460. In kind it is cell-based. To be noted: NCI-H460; H460 human lung cancer cells. The source says:
(§1) Anticancer Activity of Xenorxide Derivatives Against Human Lung Cancer (H460) and Breast Cancer (LCC6)

The test system of a further data set is Breast Cancer (LCC6). Put plainly: Anticancer activity of xenorxide derivatives (Example 8), LCC6. In kind it is cell-based. Particulars: Homo sapiens, LCC-6; LCC6 breast cancer cells.
Description: as §1

The next data set has as its system HT29. Put plainly: NCI sulforhodamine B (SRB) anticancer assay, HT29. It counts as cell-based. The source says:
(§2) The method normally used by the American National Cancer Institute (NCI) for the effectiveness of a compound is based on the LC50. The LC50 is the compound concentration at which half of the cancer cell population is killed. The assay is commonly used by those skilled in the art and are accepted as indicative of anticancer activity in mammals. The test animal cancer cells are available from ATCC, NCI and other organizations. The anticancer activities of compounds of the present invention have been determined in cell cultures of various human cancer cells (see table below) using the standard NCI method with slight modifications. The specifications of the procedure was described by Skehan et al. (1990). Briefly, cancer cells were grown in RPMI-1640 medium with glutamine and 10% fetal calf serum, and were harvested from exponential-phase maintenance cultures. The harvested cells were counted and dispensed into replicate 96-well culture plates in 180 μl volumes for each well with a cell density of up to 2,500 cells/well. The cells were allowed to settle for about 4 hours at 37° C. Then 20 μl of medium containing the test compound was added into each well, resulting in a suitable final test compound concentration. The test plates were then incubated at 37° C. The test was terminated after incubation by adding to each well 50 1 of cold 50% trichloroacetic acid. The cells were fixed for an hour at 4° C. and then washed five times with tap water. The washed plates were air-dried and stained for 30 minutes with 0.4% (wt/vol) sulforhodamine B (SRB) which was dissolved in 1% acetic acid. At the end of the staining period, the SRB was removed and plates were quickly rinsed five times with 1% acetic acid. After being rinsed, the plates were air-dried and 100 μl of 10 mM tris base (pH 10.5) were added to each well to dissolve the dye bound to the cells. The plates were placed on a gyratory shaker and shaken (100 rpm) for 10 minutes. Finally, the plates were read in a microtiter plate reader at 570 nm.
(Sulforhodamine B stains cellular protein and so reports cell mass.)

In the next data set the test system is MCF-7. Put plainly: NCI sulforhodamine B (SRB) anticancer assay, MCF-7. In kind it is cell-based.
Description: as §2

The test system of another data set is Hela. Put plainly: NCI sulforhodamine B (SRB) anticancer assay, Hela. In kind it is cell-based.
Description: as §2

The subject of a further data set is P388. In words: NCI sulforhodamine B (SRB) anticancer assay, P388. In kind it is cell-based. To be noted: P388 cells; read-out: LC50 (the source's name).
Description: as §2, with “The test was terminated after incubation by adding to each well 50 1 of cold 50% trichloroacetic acid. The cells were fixed for an hour at 4° C. and then washed five times with tap water. The washed plates were air-dried and stained for 30 minutes with 0.4% (wt/vol) sulforhodamine B (SRB) which was dissolved in 1% acetic acid. At the end of the staining period, the SRB was removed and plates were quickly rinsed five times with 1% acetic acid. After being rinsed, the plates were air-dried and 100 μl of 10 mM tris base (pH 10.5) were added to each well to dissolve the dye bound to the cells. The plates were placed on a gyratory shaker and shaken (100 rpm) for 10 minutes.” left out

The test system of the next data set is NCI-H460. Put plainly: NCI sulforhodamine B (SRB) anticancer assay, NCI-H460. In kind it is cell-based. To be noted: NCI-H460 cells, read-out: LC50 (the source's name).
Description: as §2

The next data set concerns Sk-Mel-28. Put plainly: NCI sulforhodamine B (SRB) anticancer assay, Sk-Mel-28. It counts as cell-based. Particulars: Sk-Mel-28 cells, read-out: LC50 (the source's name).
Description: as §2

A further data set has as its system LNCap. In words: NCI sulforhodamine B (SRB) anticancer assay, LNCap. It counts as cell-based, human. To be noted: LNCap cells; read-out: LC50 (the source's name).
Description: as §2, with “The test was terminated after incubation by adding to each well 50 1 of cold 50% trichloroacetic acid. The cells were fixed for an hour at 4° C. and then washed five times with tap water. The washed plates were air-dried and stained for 30 minutes with 0.4% (wt/vol) sulforhodamine B (SRB) which was dissolved in 1% acetic acid. At the end of the staining period, the SRB was removed and plates were quickly rinsed five times with 1% acetic acid. After being rinsed, the plates were air-dried and 100 μl of 10 mM tris base (pH 10.5) were added to each well to dissolve the dye bound to the cells. The plates were placed on a gyratory shaker and shaken (100 rpm) for 10 minutes.” left out

The next data set deals with DU-145 (Prostate cancer). Put plainly: NCI sulforhodamine B (SRB) anticancer assay, DU-145. In kind it is cell-based. Particulars: DU-145 (Prostate cancer) cells, read-out: LC50 (the source's name).
Description: as §2

A further data set has as its system UO-31 (Renal cancer). Put plainly: NCI sulforhodamine B (SRB) anticancer assay, UO-31. It counts as cell-based. Particulars: UO-31 (Renal cancer) cells, read-out: LC50 (the source's name).
Description: as §2

In a further data set the test system is SF-295 (CNS cancer). Put plainly: NCI sulforhodamine B (SRB) anticancer assay, SF-295. It counts as cell-based. Particulars: SF-295 (CNS cancer) cells, read-out: LC50 (the source's name).
Description: as §2

Setting [1] is: HT29 cells, concentration at which half of the cancer cell population is killed, read-out: LC50 (the source's name).
The mark [2] stands for this setting: MCF-7 cells, read-out: LC50 (the source's name).
[3] abbreviates: Hela cells, read-out: LC50 (the source's name).

Like-named read-outs stand apart in the source and are kept apart here.

A word on the IC50: it is the point on the concentration scale where inhibition reaches its midpoint. High values mean weaker potency in that assay, low ones greater potency in that assay. As to `COc1ccc(N2C(=O)C(NC(C)=O)=C3C2=CSS3(=O)=O)cc1` [BLI-042-1], the IC50 with Human Lung Cancer (H460) was determined as 230 nM; with Breast Cancer (LCC6), 1630 nM.

On to `CC(C)CCCC(=O)NC1=C2C(=CSS2(=O)=O)N(C)C1=O` [XO2], for which the CC50 amounted to 850 nM with HT29 (setting [1]); 950 nM in the data set on MCF-7 (setting [2]); 130 nM in the data set with Hela (setting [3]); 280 nM in the data set on P388; 220 nM in the data set on NCI-H460; 730 nM in the data set on Sk-Mel-28. For the same compound, the CC50 in the data set on LNCap was 190 nM; in the data set on DU-145 (Prostate cancer) it was 1600 nM; with UO-31 (Renal cancer) it was 6000 nM; in the data set with SF-295 (CNS cancer) it was 2120 nM.

Take `CCCCCC(=O)NC1=C2C(=CSS2(=O)=O)N(C)C1=O` [XO1]: the CC50 in the data set on HT29 (setting [1]) came out at 220 nM; in the data set with MCF-7 (setting [2]), 890 nM; in the data set on Hela (setting [3]), 160 nM; in the data set with P388, 660 nM; with NCI-H460, 280 nM; in the data set with Sk-Mel-28, 190 nM. Besides, the CC50 in the data set with LNCap was determined as 540 nM; with DU-145 (Prostate cancer) it was 1800 nM; in the data set with UO-31 (Renal cancer), 1850 nM; with SF-295 (CNS cancer), 1580 nM.

Take `CC(=O)NC1=C2C(=CSS2(=O)=O)N(c2ccccc2)C1=O` [CSL-30]: the IC50 in the data set on Human Lung Cancer (H460) amounted to 560 nM; in the data set with Breast Cancer (LCC6), 670 nM.

In the case of `CC(C)CCCC(=O)Nc1c2sscc-2[nH]c1=O` [XN3, 6(5′-Methylhexanamido)-4,5-dihydro1,2-dithiolo[4,3-b]pyrrol-5one], the CC50 in the data set on HT29 (Homo sapiens, HT-29, HT29 cells, concentration at which half of the cancer cell population is killed, read-out: LC50 (the source's name)) was determined as 110 nM; in the data set on MCF-7 (Homo sapiens, MCF7, MCF-7 cells, read-out: LC50 (the source's name)) it was 390 nM; in the data set with Hela (Homo sapiens, Hela cells, read-out: LC50 (the source's name)), 320 nM; with NCI-H460 (Homo sapiens), 30 nM; in the data set with Sk-Mel-28 (Homo sapiens) it was 240 nM; with DU-145 (Prostate cancer) (Homo sapiens), 140 nM. Further, the CC50 with UO-31 (Renal cancer) (Homo sapiens) is 180 nM; in the data set on SF-295 (CNS cancer) (Homo sapiens) it was 40 nM.

`COc1ccc(N2C(=O)C(NC(=O)C(F)(F)F)=C3C2=CSS3(=O)=O)cc1` [BLI-041-1]: the IC50 in the data set with Human Lung Cancer (H460) stood at 2130 nM; in the data set on Breast Cancer (LCC6), 6380 nM.

Turning to `CCCCCC(=O)Nc1c2sscc-2n(C)c1=O` [XN1, 6-(Hexanamido)-4-methyl-4,5-dihydro-1.2-dithiolo[4,3-b]pyrrol-5-one], the CC50 came to 110 nM with HT29 (setting [1]), 560 nM in the data set on MCF-7 (setting [2]) and 460 nM in the data set with Hela (setting [3]).

For the compound `CC(C)CCCC(=O)Nc1c2[s+]([O-])scc-2n(C)c1=O` (stereo not drawn) [XM2], the CC50 amounted to 110 nM in the data set on HT29 (setting [1]), 550 nM with MCF-7 (setting [2]) and 210 nM in the data set on Hela (setting [3]).

With `CC(=O)Nc1c2sscc-2n(C)c1=O` [XN0, 6-(Acetamido)-4-methyl-4,5dihydro-1.2-dithiolo[4,3-b]pyrrol-5-one], the CC50 in the data set on HT29 (Homo sapiens, HT-29, read-out: LC50) is 130 nM; in the data set on MCF-7 (Homo sapiens, MCF7, read-out: LC50), 350 nM; in the data set with Hela (Homo sapiens, HeLa, read-out: LC50), 310 nM.

Regarding `CCCCCC(=O)Nc1c2[s+]([O-])scc-2n(C)c1=O` (stereo not drawn) [XM1], the CC50 in the data set on HT29 (setting [1]) was found to be 470 nM; in the data set with MCF-7 (setting [2]), 470 nM; in the data set on Hela (setting [3]), 800 nM.

For the compound `O=C(NC1=C2C(=CSS2(=O)=O)N(Cc2ccccc2)C1=O)c1ccccc1` [CSL-29], the IC50 in the data set with Human Lung Cancer (H460) worked out at 1980 nM; in the data set on Breast Cancer (LCC6), 1970 nM.
